# Calls of active or inactive are those of the source. Unless noted, the calls are words filed in the database; no cut-off is given here.
# Tests used:
# [1] = inhibitors of non-replicating M. tuberculosis, dose response, luciferase, dry powder (AID 651620); type: functional; conditions: Mycobacterium tuberculosis
# [2] = inhibitors of non-replicating M. tuberculosis, dose response, luciferase, dry powder (AID 651619); type: functional; conditions: Mycobacterium tuberculosis
# [3] = Trypanosoma cruzi growth suppression in host cells – NIH3T3 host cells, beta-gal luminescence, confirmation (AID 2044); type: functional, cell-based;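 further: intracellular parasites grown in NIH/3T3 mouse fibroblasts as host cells; luminescent beta-galactosidase reporter signal from transgenic T. cruzi replicating inside host cells; inhibitors lower the luminescence signal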
# [4] = target: Disintegrin and metalloproteinase domain-containing protein 17 (Homo sapiens, UniProt P78536); experiment: inhibition of ADAM17 substrate cleavage – biochemical, quenched FRET substrate, counter-screen for ADAM10 exosite inhibitor project, dose response (AID 743253)
# Sequence of Disintegrin and metalloproteinase domain-containing protein 17 (P78536 whole entry, the tested form may be a part): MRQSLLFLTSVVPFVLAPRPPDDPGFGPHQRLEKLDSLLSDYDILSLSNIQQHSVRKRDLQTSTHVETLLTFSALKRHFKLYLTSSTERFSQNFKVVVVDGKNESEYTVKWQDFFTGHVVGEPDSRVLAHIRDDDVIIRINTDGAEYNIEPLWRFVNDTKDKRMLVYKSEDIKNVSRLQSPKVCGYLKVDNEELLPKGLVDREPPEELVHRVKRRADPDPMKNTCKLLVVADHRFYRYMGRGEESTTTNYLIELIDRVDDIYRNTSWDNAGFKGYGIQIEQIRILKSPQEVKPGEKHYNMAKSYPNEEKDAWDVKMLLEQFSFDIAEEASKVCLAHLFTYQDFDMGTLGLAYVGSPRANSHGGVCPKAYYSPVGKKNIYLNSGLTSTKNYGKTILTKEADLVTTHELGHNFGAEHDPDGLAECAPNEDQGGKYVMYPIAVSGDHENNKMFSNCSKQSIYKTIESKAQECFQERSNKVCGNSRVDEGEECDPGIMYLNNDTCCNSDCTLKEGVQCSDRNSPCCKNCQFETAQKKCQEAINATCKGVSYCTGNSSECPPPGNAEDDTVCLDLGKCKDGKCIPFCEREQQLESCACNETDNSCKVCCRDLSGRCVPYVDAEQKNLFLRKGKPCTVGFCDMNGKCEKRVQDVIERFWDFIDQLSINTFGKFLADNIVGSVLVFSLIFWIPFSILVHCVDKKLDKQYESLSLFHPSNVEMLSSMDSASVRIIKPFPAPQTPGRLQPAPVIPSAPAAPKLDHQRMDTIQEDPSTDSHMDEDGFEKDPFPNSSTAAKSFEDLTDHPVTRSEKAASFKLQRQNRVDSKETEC
# [5] = NIH3T3 cell viability loss – ATP luminescence, mouse fibroblasts, counter-screen, dose response (AID 2010); type: functional, cell-based;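 further: cells exposed to compound for about 90 hours before reading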
# [6] = potency of ADAM10 substrate cleavage blockers – biochemical, QFRET, dose response (AID 743254);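 further: ADAM10 enzyme with the DM2 quenched FRET peptide as substrate; EDANS fluorescence gain as the protease cuts the substrate; inhibitor potency against ADAM10 proteolytic activity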
# [7] = cytotoxicity in CCRF-CEM lymphoblastic leukemia cells – cell-based, CellTiter-Glo ATP luminescence, 8/24/48 h, dry powder, HRAS target identification, dose response (AID 720607); type: functional
# [8] = cytotoxicity in SR immunoblastic lymphoma cells – cell-based, CellTiter-Glo ATP luminescence, 8-48 h, dry powder, mechanism study for HRAS target identification, late-stage follow-up (AID 720608); type: functional
# [9] = cytotoxicity in U-251 CNS tumor cells – cell-based, Alamar Blue fluorescence, 8/24/48 h, dry powder, HRAS target identification, dose response (AID 720605); type: functional
# [10] = cytotoxicity in LOX IMVI melanoma cells – cell-based, CellTiter-Glo ATP luminescence, 8/24/48 h, dry powder, HRAS target identification, dose response (AID 720602); type: functional
# [11] = cytotoxicity in mouse C2C12 myoblasts – cell-based, CellTiter-Glo ATP luminescence, 8/24/48 h, dry powder, cytotoxicity control for HRAS target identification, dose response (AID 720603); type: functional
# [12] = time-course viability loss in HT-29 cells – cell-based, CellTiter-Glo, multiple timepoints, dry powder, HRas target identification project, dose response (AID 720598); type: functional
# [13] = cytotoxicity in SNB-75 CNS cells – cell-based, CellTiter-Glo ATP luminescence, several timepoints, dry powder, mechanism study for HRAS target identification, late-stage follow-up (AID 720624); type: functional
# [14] = reduced cellular PGC1a acetyl-lysine signal – cell-based, cherry-picked samples, dose response (AID 720514); type: functional;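 further: potency may reflect raised or lowered acetylation signal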
# [15] = RKO cell viability reduction, dose response, CellTiter-Glo luminescence (AID 1117322); type: functional
# [16] = CellTiter-Glo luminescence survival assay, SW480 colon tumor line, concentration-response curve, half-maximal inhibitory concentration (AID 1117338); type: functional
# [17] = cytotoxicity toward HT-29 cells – cell-based, CellTiter-Glo luminescence, IC50, dose response (AID 1117330); type: functional
# [18] = HCT116 cell viability decrease, GSK3B pretreatment – CellTiter-Glo, IC50, dose response (AID 1117339); type: functional; conditions: HCT-116
# [19] = SNU-C1 cell viability reduction, dose response, CellTiter-Glo luminescence (AID 1117323); type: functional, cell-based
# [20] = cytotoxicity toward Colo320 cells – cell-based, CellTiter-Glo luminescence, IC50, dose response (AID 1117334); type: functional; conditions: COLO 320
# [21] = cytotoxicity toward HCT116 cells – cell-based, CellTiter-Glo luminescence, IC50, dose response (AID 1117332); type: functional; conditions: HCT-116
# [22] = Reduced DLD-1 viability, concentration-response, CellTiter-Glo luminescence (AID 1117352); type: functional
# [23] = target: Metabotropic glutamate receptor 5 (Rattus norvegicus, UniProt P31424); experiment: Identification of a glycine sulfonamide based non-MPEP site positive allosteric potentiator (PAM) of mGlu5 (calcium_assay).; type: functional
# Sequence of Metabotropic glutamate receptor 5 (P31424 whole entry): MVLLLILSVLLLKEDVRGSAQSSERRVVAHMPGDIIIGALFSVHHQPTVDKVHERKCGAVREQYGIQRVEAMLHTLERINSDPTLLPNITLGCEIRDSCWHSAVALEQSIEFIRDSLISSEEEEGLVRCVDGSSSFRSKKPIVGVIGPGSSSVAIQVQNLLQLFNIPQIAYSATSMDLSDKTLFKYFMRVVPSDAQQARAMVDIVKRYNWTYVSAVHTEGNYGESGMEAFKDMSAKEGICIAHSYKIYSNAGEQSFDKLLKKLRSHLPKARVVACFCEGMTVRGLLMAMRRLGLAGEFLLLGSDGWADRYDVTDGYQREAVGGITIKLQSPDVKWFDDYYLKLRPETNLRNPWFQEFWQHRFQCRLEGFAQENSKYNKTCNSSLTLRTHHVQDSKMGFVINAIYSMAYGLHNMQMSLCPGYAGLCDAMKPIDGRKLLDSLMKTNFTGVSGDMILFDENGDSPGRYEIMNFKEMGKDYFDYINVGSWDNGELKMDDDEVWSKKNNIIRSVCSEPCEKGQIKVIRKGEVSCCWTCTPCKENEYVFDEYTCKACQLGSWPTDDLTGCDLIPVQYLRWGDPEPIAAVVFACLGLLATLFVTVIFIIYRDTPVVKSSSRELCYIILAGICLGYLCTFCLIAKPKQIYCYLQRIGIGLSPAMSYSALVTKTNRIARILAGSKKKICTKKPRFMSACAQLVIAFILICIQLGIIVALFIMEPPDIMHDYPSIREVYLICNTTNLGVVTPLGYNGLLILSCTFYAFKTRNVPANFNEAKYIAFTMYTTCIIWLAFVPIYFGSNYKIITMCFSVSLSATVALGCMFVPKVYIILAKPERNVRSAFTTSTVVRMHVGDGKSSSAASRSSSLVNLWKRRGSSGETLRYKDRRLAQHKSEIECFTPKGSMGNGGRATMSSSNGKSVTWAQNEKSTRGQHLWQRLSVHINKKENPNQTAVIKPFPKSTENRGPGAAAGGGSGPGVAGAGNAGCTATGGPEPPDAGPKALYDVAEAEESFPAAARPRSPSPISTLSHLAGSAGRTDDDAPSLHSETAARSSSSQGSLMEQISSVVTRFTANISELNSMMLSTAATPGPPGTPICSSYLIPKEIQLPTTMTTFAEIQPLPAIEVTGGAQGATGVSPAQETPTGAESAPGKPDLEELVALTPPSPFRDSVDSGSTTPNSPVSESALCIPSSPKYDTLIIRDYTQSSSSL
# [24] = target: Metabotropic glutamate receptor 7 (Homo sapiens, UniProt Q14831); experiment: potentiation of glutamate EC20 at mGlu7 – cell-based, calcium mobilization, Galpha15, dose response (AID 743384); type: functional
# Sequence of Metabotropic glutamate receptor 7 (Q14831 whole entry): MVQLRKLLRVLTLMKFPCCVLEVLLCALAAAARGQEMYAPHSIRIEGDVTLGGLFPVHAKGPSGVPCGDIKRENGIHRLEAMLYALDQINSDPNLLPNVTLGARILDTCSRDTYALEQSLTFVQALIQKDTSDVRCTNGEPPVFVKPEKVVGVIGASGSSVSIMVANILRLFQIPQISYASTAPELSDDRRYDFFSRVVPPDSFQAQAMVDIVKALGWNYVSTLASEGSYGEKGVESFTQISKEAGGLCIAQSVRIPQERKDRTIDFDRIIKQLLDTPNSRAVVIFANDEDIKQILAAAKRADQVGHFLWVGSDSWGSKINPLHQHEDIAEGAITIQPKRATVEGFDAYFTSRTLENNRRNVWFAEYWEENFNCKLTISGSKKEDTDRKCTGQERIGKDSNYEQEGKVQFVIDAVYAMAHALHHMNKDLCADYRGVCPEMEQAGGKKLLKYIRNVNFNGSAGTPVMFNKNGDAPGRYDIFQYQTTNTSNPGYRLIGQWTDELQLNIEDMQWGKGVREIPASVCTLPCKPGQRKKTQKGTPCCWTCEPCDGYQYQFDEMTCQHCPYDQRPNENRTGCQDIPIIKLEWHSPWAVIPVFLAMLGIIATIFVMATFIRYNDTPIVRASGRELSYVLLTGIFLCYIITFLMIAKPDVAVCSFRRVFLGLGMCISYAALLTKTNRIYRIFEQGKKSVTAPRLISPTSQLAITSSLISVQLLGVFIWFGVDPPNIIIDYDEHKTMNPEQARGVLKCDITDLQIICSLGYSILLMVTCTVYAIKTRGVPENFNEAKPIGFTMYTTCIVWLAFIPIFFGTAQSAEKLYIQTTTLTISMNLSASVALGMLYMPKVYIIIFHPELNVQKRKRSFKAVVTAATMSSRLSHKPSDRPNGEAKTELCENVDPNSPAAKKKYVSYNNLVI
# [25] = mouse embryonic fibroblast toxicity – cell-based, plate reader, dry powder, set 2, cytotoxicity control, dose response (AID 652280); type: functional; conditions: NIH3T3
compound,measurement,setting,value
CCSc1nnc(-c2ccccc2)o1,IC90,[1],31 µM (active)
same,IC90,[2],31 µM (active)
O=S(=O)(c1ccc(NC(=S)NCCC(c2ccccc2)c2ccccc2)cc1)N1CCOCC1,EC50,[3],1.86 µM (active)
same,IC50,[4],> 69.5 µM (inactive)
same,EC50,[5],> 30 µM (not active)
same,IC50,[6],13.2 µM (inactive)
COC(=O)c1ccc([C@@H]2c3[nH]c4ccccc4c3C[C@@H](C(=O)OC)N2C(=O)CCl)cc1,AC50,[7],0.105 µM (active)
same,AC50,[8],0.0492 µM (active)
same,AC50,[9],0.0342 µM (active)
same,AC50,[10],0.0709 µM (active)
same,AC50,[11],0.233 µM (active)
same,AC50,[12],0.235 µM (active)
same,AC50,[13],0.374 µM (active)
COC(=O)[C@@]1(Cc2ccccc2CN=[N+]=[N-])N=C(c2ccc(OCCCO)cc2)O[C@H]1c1ccccc1,AC50,[14],17.4 µM (active)
NC(=O)n1c(O)c(C(=O)c2cccs2)c2cc(Cl)ccc21,IC50,[15],4.7 µM (active)
same,IC50,[16],1.02 µM (active)
same,IC50,[17],5.6 µM (inactive)
same,IC50,[18],3.79 µM (active)
same,IC50,[19],0.537 µM (active)
same,IC50,[20],1.64 µM (active)
same,IC50,[21],2.31 µM (active)
same,IC50,[22],6.95 µM (inactive)
CC(C(=O)Nc1ccccn1)N(c1ccccc1Cl)S(C)(=O)=O (stereo not given),EC50,[23],10 µM (inconclusive)
CC(=O)Nc1ccc(SCC(=O)c2cc(C)n(CC3CCCO3)c2C)cc1 (stereo not given),EC50,[24],4.8 µM (active)
Cc1cccc(-c2ccc([C@H]3[C@H](CO)N4CCCCN(CCC(F)(F)F)C[C@@H]34)cc2)c1,AC50,[25],3.67 µM (active)
